Experimental data reported in publication PMC8333425, “Discovery of a dual Ras and ARF6 inhibitor from a GPCR endocytosis screen” (Nature Communications, 2021).
Several values for one entry are separate records, joined by “and”; a condition that tells them apart may be missing. Equal entries are not always repeated.

System: ERK1/2 activation by AT1R
Test: Western blot of AT1R-mediated ERK1/2 phosphorylation
Assay type: cell-based, human
Conditions: for p-ERK1/2 over ERK1/2, normalized to basal (0 min), AT1R: Comp 21 50 μM; for p-ERK1/2 over ERK1/2, normalized to basal (0 min), AT1R / ERK 1/2 activation, AT1R (p-ERK1/2 over ERK1/2, fold over basal): individual experiments
Method: HEK293SL cells (10^5 cells per well) were seeded in a poly-L-lysine-coated six-well plate and transiently transfected with 3 μg Flag-AT1R, HA-B2R or HA-β2AR and/or 500 ng Flag-MEK1-WT, Flag-MEK1-DD, Flag-BRAF-WT, Flag-BRAF-V600E, Flag-K-Ras-WT, Flag-K-Ras-G12V, HA-ARF6-WT, or HA-ARF6-T27N. Gαq/11 KO and βarr1/2 KO cells were seeded onto 100 mm dishes at a density of 10^6 cells per dish. Next day, cells were transfected with 3 μg AT1R alone or along with 500 ng of β-arrestin2 using PEI. After 18 h of transfection, cells were detached and re-seeded onto poly-L-lysine coated 12-well plates (~1.5–2 × 10^5cells/well) for subsequent experiments. Forty-eight hours post transfection, in a 37 °C water bath, cells were serum-starved for 30 min, pretreated with DMSO (0.1%) or compound 21/Rasarfin (50 µM or at indicated concentrations) for 30 min, then stimulated or not with the indicated ligand [AngII (1 µM), BK (1 µM), Iso (10 µM) or EGF (100 ng/ml)] at indicated times. Cells were put on ice, washed with PBS and solubilized in 2x laemmli buffer (250 mM Tris–HCl pH 6.8, 2% SDS (w/v), 10% glycerol (v/v), 0.01% bromophenol blue (w/v) and 5% β-mercaptoethanol (v/v)) by heating at 65 °C for 15 min. Lysates were resolved on 10 or 14% SDS-PAGE, transferred to nitrocellulose membranes and immunoblotted for p-ERK1/2, ERK1/2, p-Akt, Akt, HA, Myc, β-actin or FLAG. ImageLab 5.2 software was used to quantify the digital blots as fold of the phosphorylated protein over total protein, which were then normalized as indicated in the figure legends. Uncropped immunoblots are provided in the Source Data file.

## CC(C)C(=O)N1CCN(c2ccc(NC(=O)c3cc4ccccc4o3)cc2Cl)CC1 [Compound 21]
50 μM
  AngII-mediated phosphorylation of ERK1/2: totally inhibited
Time 0 min
  p-ERK1/2 over ERK1/2, normalized to basal (0 min), AT1R: 1
Time 2 min
  p-ERK1/2 over ERK1/2, normalized to basal (0 min), AT1R: 0.1554 and 0.4142 and 0.5216 and 8.819
Time 5 min
  p-ERK1/2 over ERK1/2, normalized to basal (0 min), AT1R: 0.1741 and 0.568 and 0.6273 and 10.8319
Fig.8b
  Mean Diff. DMSO vs. compound of P-ERK/ERK (fold over Basal) (Dunnett's multiple comparisons test): 6.88
Homo sapiens, read-out: IC50 for inhibition of ERK1/2 activation by AT1R
  IC50: 5 µM
Log [Comp 21] (M) -4.3
  ERK 1/2 activation, AT1R (p-ERK1/2 over ERK1/2, fold over basal): 17.8621 percent compared to DMSO and 9.459 percent compared to DMSO and 11.994 percent compared to DMSO
Log [Comp 21] (M) -5
  ERK 1/2 activation, AT1R (p-ERK1/2 over ERK1/2, fold over basal): 18.3493 percent compared to DMSO and 17.9264 percent compared to DMSO and 17.6879 percent compared to DMSO
Log [Comp 21] (M) -5.3
  ERK 1/2 activation, AT1R (p-ERK1/2 over ERK1/2, fold over basal): 58.8009 percent compared to DMSO and 49.3558 percent compared to DMSO and 49.3771 percent compared to DMSO
Log [Comp 21] (M) -6
  ERK 1/2 activation, AT1R (p-ERK1/2 over ERK1/2, fold over basal): 81.7633 percent compared to DMSO and 93.0329 percent compared to DMSO and 113.57 percent compared to DMSO
Log [Comp 21] (M) -6.3
  ERK 1/2 activation, AT1R (p-ERK1/2 over ERK1/2, fold over basal): 97.88 percent compared to DMSO and 83.5696 percent compared to DMSO
Log [Comp 21] (M) -7
  ERK 1/2 activation, AT1R (p-ERK1/2 over ERK1/2, fold over basal): 100 percent compared to DMSO

## Nn1cnc2scc(-c3ccc(Cc4ccccc4)cc3)c2c1=O [Barbadin, reference compound]
Barbadin 100 µM
  MAPK promoted by AT1R: ineffective at blocking MAPK

## CCCC(=O)N1CCN(c2ccc(NC(=O)c3cc4ccccc4o3)cc2Cl)CC1 [Compound 21.8]
50 μM
  inhibition of AT1R-mediated ERK1/2 (MAPK) activation (Fig. 8b): maintained its MAPK inhibitory property
